Source: patent publication US8709482B2, “Stabilised prostaglandin composition” (Ferring B.V., priority 2005, dated 2014)

Key:
[1] = Stability study of misoprostol oil at 25° C. (HPLC content, physical form); type: physicochemical
Method: Misoprostol stability was tested over a period of 6 months. The misoprostol tested was the commercially available misoprostol in the form of an oil. Misoprostol was stored at a temperature of 25° C., and misoprostol content measured using HPLC at 0, 2, 4, 8 weeks and 3 and 6 months.

[2] = Comparative stability at 25° C. of dinoprostone bulk drug crystal and dinoprostone in polyurethane hydrogel; type: physicochemical
From the text: Measurements are taken at 0, 1, 2, 3, and 6 months. The following results are for comparative purposes only and are not intended to form part of the present invention.

Structure (SMILES)	Misoprostol content [1]; 0	Physical form [1]; 0	Misoprostol content ([1]; 2 w)	Physical form ([1]; 2 w)	Misoprostol content ([1]; 3 m)	Physical form ([1]; 3 m)	Misoprostol content ([1]; 4 w)	Physical form ([1]; 4 w)	Misoprostol content ([1]; 6 m)	Physical form ([1]; 6 m)	Misoprostol content ([1]; 8 w)	Physical form ([1]; 8 w)	Stability (FIG. 1) ([1]; in the absence of polyurethane hydrogel)	% potency ([2]; 0 months)	% potency ([2]; 1 month)	% potency ([2]; 3 months)	% potency ([2]; 6 months)
CCCCC(C)(O)C/C=C/[C@H]1[C@H](O)CC(=O)[C@@H]1CCCCCCC(=O)OC (mixture of isomers) [Misoprostol, (11α,13E)-(±)-11,16-Dihydroxy-16-methyl-9-oxoprost-13-en-1-oic acid methyl ester]	101.59 % w/w	Colourless	99.61 % w/w	Colourless	93.63 % w/w	Straw	98.59 % w/w	Colourless	57.07 % w/w	Yellow	96.87 % w/w	Clear	degrades with time				
CCCCC[C@H](O)/C=C/[C@H]1[C@H](O)CC(=O)[C@@H]1C/C=C\CCCC(=O)O [Dinoprostone]														100 % potency	96 % potency	89 % potency	75 % potency
